Legend:
[1] = stability of the crystalline physical form; type: physicochemical; details: solid crystalline form
[2] = stability in the presence of water / as aqueous suspension; type: physicochemical
Procedure: Form 5 ZD1839 trihydrate is a stable form of the compound of Formula I In particular, Form 5 ZD1839 trihydrate is very stable in the presence of water. For example, when Form 5 ZD1839 trihydrate is prepared as an aqueous suspension the resulting suspension is stable, whereas aqueous suspensions prepared using other forms of the compound of Formula I are prone to convert to Form 5 ZD1839 trihydrate during storage. In the case of aqueous suspensions of the compound of Formula I this can be problematic because the conversion of a less thermodynamically stable form to the Form 5 ZD1839 trihydrate can result in the growth of large crystals of the Form 5 ZD1839 trihydrate, thereby altering the particle size distribution in the suspension. […] Furthermore, if a variable mixture of two such forms of the compound of Formula I were to be present, the dissolution rate and bioavailability of the active compound(s) could be variable as a result of the different characteristics of the two forms.

| SMILES | stability of crystalline physical form [1] | stability in the presence of water ([2]; in the presence of water) | stability of aqueous suspension ([2]; prepared as an aqueous suspension, during storage) |
| --- | --- | --- | --- |
| COc1cc2ncnc(Nc3ccc(F)c(Cl)c3)c2cc1OCCCN1CCOCC1 [Form 1 ZD1839 polymorph, 4-(3′-chloro-4′-fluoroanilino)-7-methoxy-6-(3-morpholinopropoxy)quinazoline] | highly stable |  |  |
| COc1cc2ncnc(Nc3ccc(F)c(Cl)c3)c2cc1OCCCN1CCOCC1 [Form 2 ZD1839 MeOH solvate, 4-(3′-chloro-4′-fluoroanilino)-7-methoxy-6-(3-morpholinopropoxy)quinazoline hemi-methanolate] | of sufficient stability |  |  |
| COc1cc2ncnc(Nc3ccc(F)c(Cl)c3)c2cc1OCCCN1CCOCC1 [Form 3 ZD1839 DMSO solvate, 4-(3′-chloro-4′-fluoroanilino)-7-methoxy-6-(3-morpholinopropoxy)quinazoline mono-solvate with dimethyl sulphoxide] | very stable |  |  |
| COc1cc2ncnc(Nc3ccc(F)c(Cl)c3)c2cc1OCCCN1CCOCC1 [Form 5 ZD1839 trihydrate, 4-(3′-chloro-4′-fluoroanilino)-7-methoxy-6-(3-morpholinopropoxy)quinazoline trihydrate] |  | very stable | stable |
